These results are taken from patent publication US11773373B2, “Method for amplifying CD8+T cells and cell subpopulations thereof in-vitro” (Shanghai Innovative Chang'An Biological Technology Co., Ltd., priority 2017, dated 2023).

For experiment [1], the system named is central memory CD8+ T cells (TCM). Description: Proliferation of the central memory subpopulation of CD8+ T cells of healthy subjects. Format: cell-based. Conditions: in combination with anti-human CD3 antibody, compared with anti-human CD3 beads alone, 7 days. The procedure:
(§1) 1. Peripheral blood mononuclear cells (PBMC) of healthy subjects were isolated.
(§2) 2. CD8+ T cells were sorted using an EasySep™ Negative Selection Human CD8+ T cell Enrichment kit (stem cell: 19053).
(§3) 3. The sorted CD8 cells were stained using Cell Proliferation Dye eFluor 670 (ebioscience: 65-0840-90).
(§4) 4. The cells were placed in a 96-well U-shaped bottom plate with 1×10^5 cells per well.
(§5) 5. The following stimulants and TLR agonists (invivoGen: tlr-kit1hw, human TLR1-9 Agonist KIT) were added in groups:
(§6) (The anti-human CD3 antibody used was magnetic beads coated with the antibody (CELLection Pan Mouse IgG Kit, Invitrogen: 11531D), wherein the ratio of the cells to the magnetic beads was 1:1)
(§7) 6. The cells were cultured in the 96-well U-shaped bottom plate, and cultured in a cell incubator for 7 days.
(§8) 7. The cells were labeled with antibodies CD8 (BD: 561423), CD45RA (eBioscience: 25-0458-42) and CCR7 (eBioscience: 17-1979-42), and the influence of different TLR agonists on the proliferation of CD8+ T subpopulations (TNaive: Naive T cells, TCM: central memory T cells, TEM: effector memory T cells) was detected by flow cytometry.

The test system of experiment [2] is effector memory T cells (TEM). The experiment is described as follows: Proliferation of the effector memory subpopulation of CD8+ T cells of healthy subjects. Format: cell-based. Particulars: in combination with anti-human CD3 antibody, compared with anti-human CD3 beads alone, 7 days. The procedure:
as §1, §2, §3, §4, §5, §6, §7, §8

The test system of experiment [3] is central memory CD8+ T cells (TCM). The experiment is described as follows: Proliferation of the central memory subpopulation of CD8+ T cells of HIV-1 infected individuals. The class given is cell-based, human. Particulars: 7 days.
Text: (§9) 1. Peripheral blood mononuclear cells (PBMC) of HIV-1 infected individuals were isolated.
(§10) 2. CD8+ T cells were sorted using an EasySep™ Negative Selection Human CD8+ T cell Enrichment kit (Stemcell: 19053).
as §3, §4, §5
(§11) (The anti-human CD3 antibody and the anti-human CD28 antibody in the form of coated magnetic beads (CELLection Pan Mouse IgG Kit, Invitrogen: 11531D) were used to stimulate the cells, wherein the ratio of the cells to the magnetic beads was 1:1)
as §7
(§12) 7. The cells were labeled with antibodies CD8 (BD: 561423), CD45RA (eBioscience: 25-0458-42) and CCR7 (eBioscience: 17-1979-42), and the influence of different TLR agonists on the proliferation of CD8+ T subpopulations (TNaive: Naive T cells, TCM: central memory T cells, TEM: effector memory T cells) was detected by a flow cytometer.

Another experiment has as its system CD8+ T cells. The experiment is described as follows: Proliferation of sorted CD8+ T cells of healthy subjects (eFluor 670 dye, flow cytometry, 7 days). Format: cell-based. Conditions: in combination with anti-human CD3 antibody, compared with magnetic beads coated with anti-human CD3 antibody alone.
Text: 1. Peripheral blood mononuclear cells (PBMC) of healthy subjects were isolated according to Example 1.
as §10, §3, §4, §5
(The anti-human CD3 antibody and the anti-human CD28 antibody used were magnetic beads coated with the antibodies (CELLection Pan Mouse IgG Kit, Invitrogen: 11531D), wherein the ratio of the cells to the magnetic beads was 1:1)
as §7
7. The proliferation of the CD8+ T cells was detected by a flow cytometer under the stimulation conditions of different TLR agonists. FIG. 1A is a diagram showing the proliferation of CD8 cells under the conditions of blank control (left panel) as well as an anti-human CD3 antibody and an anti-human CD28 antibody (right panel). FIG. 1B is a statistical chart showing the proliferation proportion of CD8 cells under different stimulation conditions.

The test system of experiment [4] is effector memory T cells (TEM). The experiment is described as follows: Proliferation of the effector memory subpopulation of CD8+ T cells of HIV-1 infected individuals. Format: cell-based, human. Conditions: 7 days.
Text: as §9, §10, §3, §4, §5, §11, §7, §12

[5] abbreviates: added to anti-human CD3/28 beads, compared with anti-human CD3/28 beads.
Setting [6] is: added to anti-human CD3 beads, compared with anti-human CD3 beads alone.

Consider FSL-1, for which the “proliferation of central memory CD8+ T cells (TCM)” value is “effectively stimulated” in experiment [1], “further enhanced” in experiment [3] (setting [5]) and “more effectively stimulated” in experiment [3] (setting [6]). In addition, the figures for the “proliferation of effector memory T cells (TEM)” value in experiment [2], in experiment [4] (setting [5]) and in experiment [4] (setting [6]) were “effectively stimulated”, “further enhanced” and “more effectively stimulated”, respectively. In the experiment on CD8+ T cells, the “proliferation of CD8+ T cells” value was “effectively stimulated”.

B1: Flagellin: TLR5 agonist, S. typhimurium Flagellin (invivoGen: tlrl-epstfla-5) (protein, UniProt P06179 2-495, looked up)
Flagellin: AQVINTNSLSLLTQNNLNKSQSALGTAIERLSSGLRINSAKDDAAGQAIANRFTANIKGLTQASRNANDGISIAQTTEGALNEINNNLQRVRELAVQSANSTNSQSDLDSIQAEITQRLNEIDRVSGQTQFNGVKVLAQDNTLTIQVGANDGETIDIDLKQINSQTLGLDTLNVQQKYKVSDTAATVTGYADTTIALDNSTFKASATGLGGTDQKIDGDLKFDDTTGKYYAKVTVTGGTGKDGYYEVSVDKTNGEVTLAGGATSPLTGGLPATATEDVKNVQVANADLTEAKAALTAAGVTGTASVVKMSYTDNNGKTIDGGLAVKVGDDYYSATQNKDGSISINTTKYTADDGTSKTALNKLGGADGKTEVVSIGGKTYAASKAEGHNFKAQPDLAEAAATTTENPLQKIDAALAQVDTLRSDLGAVQNRFNSAITNLGNTVNNLTSARSRIEDSDYATEVSNMSRAQILQQAGTSVLAQANQVPQNVLSLLR
Consider B1, for which the “proliferation of central memory CD8+ T cells (TCM)” value in experiment [1] is “effectively stimulated”; in experiment [3] (setting [5]) it was “further enhanced”; in experiment [3] (setting [6]) it was “more effectively stimulated”. For the same molecule, the “proliferation of effector memory T cells (TEM)” value in experiment [2] is given as “effectively stimulated”; in experiment [4] (setting [5]) it was “further enhanced”; in experiment [4] (setting [6]) it was “more effectively stimulated”. Besides, the “proliferation of CD8+ T cells” value in the experiment with CD8+ T cells is “effectively stimulated”.
